Measurements as given in patent US8377691B2 (priority 2006, dated 2013).
“Also recorded” adds a separate entry of the source.

Assays:
Type in all cases: biochemical
A/M2 PR8/34 = A/M2 PR8/34 (Influenza A virus, UniProt P06821)
B/M2 Lee40 = B/M2 Lee40 (Influenza B virus, UniProt P03493)
A/M2 PR8/34 (V27S31) = A/M2 PR8/34 (V27S31) (Influenza A virus, UniProt P06821, A27V/N31S)
[1] = target: A/M2 Udorn72 with a mutation (S31N) (Influenza A virus, UniProt P0DOF5, S31N)

| Structure (SMILES) | H+ transport across VLP membranes (fluorescence) (A/M2 PR8/34) | H+ transport across VLP membranes (fluorescence) (B/M2 Lee40) | H+ translocation across VLP membranes (fluorescence) (A/M2 PR8/34 (V27S31)) | H+ transport across VLP membranes (fluorescence) [1] |
| --- | --- | --- | --- | --- |
| CC(N)C12CC3CC(CC(C3)C1)C2 (stereo not drawn) [rimantadine] | exerted no effect | exerted no effect | – | – |
| NC12CC3CC(CC(C3)C1)C2 [amantadine] | exerted no effect; also recorded: in the presence or absence of amantadine | exerted no effect | in the absence, but not in the presence of 100 μM of the drug | resistant to inhibition |
